Assay [1] addresses T1, bovine α1-AGP (α1-acid glycoprotein) (Bos taurus, UniProt Q3SZR3).
T1 construct: gene ORM1
T1 sequence (Q3SZR3 19-202): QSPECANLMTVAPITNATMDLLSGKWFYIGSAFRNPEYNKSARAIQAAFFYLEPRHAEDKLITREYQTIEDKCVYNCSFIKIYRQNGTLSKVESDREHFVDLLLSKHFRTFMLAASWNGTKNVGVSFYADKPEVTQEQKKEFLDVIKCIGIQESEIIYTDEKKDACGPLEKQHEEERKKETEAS
Kind of assay: competitive displacement of [EuL^[…]], Eu emission. Type of assay: binding. Further details: unit not given here. Particulars: pH 7.40, 298 K; competitive with [EuL^1].

For assay [2], the target named is T2, human α1-AGP (α1-acid glycoprotein).
T2 construct: gene ORM1
Particulars: pH 7.40, 298 K; competitive with [EuL^1].

The values below come from paper PMC5915836, “Chiral probes for α1-AGP reporting by species-specific induced circularly polarised luminescence” (Chemical Science, 2018).

Each structure is given as a SMILES string.

Regarding `CCCCN1CCCCC1C(=O)Nc1c(C)cccc1C` (centres unmarked) [bupivacaine], the Bupivacaine in assay [1] was determined as 6.4; in assay [2] it was 5.6.
